Earlier results in patent publication US20130266625A1 (YISSUM RESEARCH DEVELOPMENT COMPANY OF THE HEBREW …, priority 2011, published 2013).

Columns and labels:
[1] = test system: cultured dermal fibroblasts
[2] = test system: procollagen alpha1 (I), MMP-1 and TIMP-1 expression in skin; settings: 5% in ethanol:olive oil (1:2), 12 times over 4 weeks
[3] = 50 mg/day over one year

## C[C@]12CC[C@H](O)CC1=CC[C@@H]1[C@@H]2CC[C@]2(C)C(=O)CC[C@@H]12 [DHEA, dehydroepiandrosterone]
[1]
  matrix metalloproteinase (MMP)-1 synthesis: decreasing
  procollagen synthesis: increase procollagen synthesis
  tissue inhibitor of matrix metalloprotease (TIMP-1) production: increasing
[2]
  basal expression of MMP-1 mRNA and protein: significantly decreased
[2]; aged and young skin
  expression of procollagen alpha1 (I) mRNA and protein: significantly increase
[2]; aged skin
  expression of TIMP-1 protein: increased
[3]
  harmful consequences: no harmful consequences were observed
[3]; individuals aged 60 years and over
  skin status (hydration, epidermal thickness, sebum production, skin pigmentation): improvement of the skin status
